# Molecular target: T1, LoxR (Kosakonia pseudosacchari, UniProt A0ABX4IX59)
# T1 construct: gene BK796_01250; full-length, His6-tagged (pET22b NdeI/XhoI, tag at C-terminus by vector), E. coli BL21(DE3) pLysS; forward primer encodes N-terminus MQDTEFFT
# Test: ligand-dependent solubility on expression in E. coli (total extract vs soluble fraction)
# Format: cell-based
# Conditions: expressed in E. coli in presence of AHL, 0.2 mM IPTG, 37°C overnight
# T1 sequence (A0ABX4IX59 entry or part of it): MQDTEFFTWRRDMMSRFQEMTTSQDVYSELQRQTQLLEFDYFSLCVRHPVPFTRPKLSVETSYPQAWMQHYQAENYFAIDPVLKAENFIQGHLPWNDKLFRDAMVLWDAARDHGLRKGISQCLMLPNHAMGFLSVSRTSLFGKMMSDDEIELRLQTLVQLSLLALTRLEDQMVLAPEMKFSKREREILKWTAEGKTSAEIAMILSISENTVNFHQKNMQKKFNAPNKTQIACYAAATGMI
row,Compound,ligand-dependent solubility on expression in E. coli (total extract vs soluble f)
1,CCCC(O)CC(=O)N[C@H]1CCOC1=O (stereo partly drawn) [OHC6-HSL],LoxR was soluble when bound and insoluble when unbound to AHLs
2,CCCC(=O)CC(=O)N[C@H]1CCOC1=O [OC6-HSL],LoxR was soluble when bound and insoluble when unbound to AHLs
3,CCCCCC(=O)CC(=O)N[C@H]1CCOC1=O [OC8-HSL],LoxR was soluble when bound and insoluble when unbound to AHLs
4,CCCCCCCCCC(=O)N[C@H]1CCOC1=O [C10-HSL],LoxR was soluble when bound and insoluble when unbound to AHLs

# Molecular target: T1, LoxR
# Test: co-purification of complex (Ni-NTA, gel filtration), LC-MS/MS detection of coeluting AHL; ligand-dependent solubility
# Format: binding
# Conditions: expressed with 10 uM AHL, 16°C; pH 8.5
row,Compound,"co-purification of complex (Ni-NTA, gel filtration), LC-MS/MS detection of coelu"
1,CCCCCC(=O)N[C@H]1CCOC1=O [C6-HSL],It was therefore concluded that AHLs solubilize and bind to LoxR.
2,CCCCCCCCCC(=O)CC(=O)N[C@H]1CCOC1=O [OC12-HSL],OC12-HSL was also able to solubilize LoxR (data not shown)

# From paper PMC7301841, “LuxR Solos in the Plant Endophyte Kosakonia sp. Strain KO348” (Applied and Environmental Microbiology, 2020)
